Values of other authors as cited in US20220184020A1, “Polyphenols as Modulators of Platelet Function” (Northeastern University, priority 2019, published 2022).

Tests used:
[1] = cited from earlier work; for Max: maximum concentration detected in blood; for Max / Min: HMDB; for Min: minimum concentration detected in blood; for Concentration in Blood: retrieved from HMDB, Table 2
[2] = in vitro and in vivo models; cited from earlier work
[3] = in vivo models, recent studies; cited from earlier work
[4] = tested on: MCF7 cell line; conditions: MCF7, 1 μM, 6 hours; cited from earlier work

SMILES | Max [1] [µM] | Min [1] [µM] | also measured
O=C(O)c1cccc(O)c1O [2,3-dihydroxybenzoic acid] | 0.129 | 0.129 | –
O=C(O)c1ccccc1O [2-hydroxybenzoic acid] | 0.02 | 0.02 | –
Oc1cc(O)c2c(c1)O[C@H](c1ccc(O)c(O)c1)[C@H](O)C2 [(-)-epicatechin] | 0.625 | 0.625 | Concentration in Blood [1]: 0.625 µM
O=C(O[C@@H]1Cc2c(O)cc(O)cc2O[C@@H]1c1cc(O)c(O)c(O)c1)c1cc(O)c(O)c(O)c1 [(-)-epigallocatechin 3-O-gallate] | – | – | glucose-lowering effects [2]: glucose-lowering effects
O=c1cc(-c2ccc(O)cc2)oc2cc(O)cc(O)c12 [apigenin] | 0.127 | 0.0106 | –
O=c1oc2cc(O)ccc2c2oc3cc(O)ccc3c12 [coumestrol] | 0.0123 | 0.0123 | –
O=c1oc2c(O)c(O)cc3c(=O)oc4c(O)c(O)cc1c4c23 [ellagic acid] | 0.067 | 0.067 | –
O=C(O)c1cc(O)c(O)c(O)c1 [gallic acid] | – | – | effects on vascular health [3]: protective effects on vascular health
O=c1c(-c2ccc(O)cc2)coc2cc(O)cc(O)c12 [genistein] | 0.525 | 0.00022 | number of Skin Diseases (SD) genes with perturbation score>2 [4]: 10; number of highly perturbed Cerebrovascular Disorders (CD) genes [4]: one; Concentration in Blood [1]: [0.006-0.525 μM]
COc1ccccc1O [guaiacol] | 8.5 | 8.5 | –
COc1cc(-c2oc3cc(O)cc(O)c3c(=O)c2O)ccc1O [isorhamnetin] | 0.157 | 0.0388 | –
O=c1c(O)c(-c2cc(O)c(O)c(O)c2)oc2cc(O)cc(O)c12 [myricetin] | 45 | 45 | –
O=C1C[C@@H](c2ccc(O)cc2)Oc2cc(O)cc(O)c21 [naringenin] | 0.02 | 0.00815 | –
Oc1ccccc1 [phenol] | 6.38 | 0.86 | –
O=C(O)Cc1ccccc1 [phenylacetic acid] | 80.36 | 10.28 | –
O=c1c(O)c(-c2ccc(O)c(O)c2)oc2cc(O)cc(O)c12 [quercetin] | – | – | Concentration in Blood [1]: [0.022-0.080 μM]
